Assay results published in patent EP0793481B1, “COSMETIC COMPOSITION CONTAINING HYDROXY ALKANOATE DERIVATIVES” (priority 1993, dated 1995).
Like-named read-outs stand apart in the source and are kept apart here. One block for each compound: values may come before it.

What was measured:
[1] = Penetration of acyl lactylates: serial tape stripping of skin and lactate assay (Sigma 735-10) of the tapes; conditions: result in words; 10% by weight solutions, four hours
Protocol: The penetration of acyl lactylate and lactic acid in this manner can be determined by serial tape stripping and by biochemical assay of free lactate from skin cells adhering to the tape.
The methodology employed using pig skin is as follows:
The tape employed in this test is Desquame tape available from Diastron. Following topical application to skin of acyl lactylate, pieces of this tape are applied to the skin and then removed, and skin cells are assayed for lactate using Sigma 735-10 lactate assay kit. Thus, by repeated stripping of the same area of skin the degree of penetration of the topically applied acyl lactylate and its cleavage by epidermal esterases can be determined.
10% by weight solutions of sodium lactate (control) and of five different sodium acyl lactylates having from C8 to C18 acyl chains, were prepared in pH 7.0 Sorenson's phosphate buffer, 5 mM. Seven pieces of full thickness skin, taken from pig ear, were cut to 4 x 4cm and pinned out. 100 µl aliquots of the 6 test solutions were applied to the entire surface of six pieces of skin, the remaining piece of skin was used as a no-treatment control. […]
Each tape was placed in a labelled 1ml tube and 800µl of 5.00mM phosphate buffer, pH 7.00 was added to each tube. […] The buffer reagent mixture from each tube was then transferred to microcuvettes and the absorbtion of the solutions measured at 540nm using a spectrophotometer.

[2] = Hydrolysis in skin: thin-layer chromatography of radiolabel extracted from tape strips; type: in vitro ADME, pig; conditions: after six hours; for metabolised at 6 h / remaining at 6 h: pig, ear skin, topical or ocular, mean of three repeats; for metabolised at 6 h: spot of hydrolysis products, read-out: % of total label, peak 1; for remaining at 6 h: spot of the applied compound itself, read-out: % of total label, peak 2
Protocol: In a similar experiment nine tape strips were taken after six hours. The first three strips were incubated in 3ml of phosphate buffer. The next three strips and the final three strips were likewise incubated. After 30 minutes the buffer solutions were spotted onto a thin-layer chromatography plate (bearing silica gel as the stationary phase).
The plate was eluted with 80:20:2 hexane:ether:acetic acid mixture. The spots on the plate were detected and quantified by their emitted radiation. […] The results (mean of three repeats) were:
The results of thin layer chromatography, showing the extent of hydrolysis were: […]

[3] = Deposition of radiolabelled lactylate from diluted detergent composition after rinse-off, scintillation count of tape strips; type: in vitro ADME, pig; conditions: result in words, 0.12M, 100 µl, left for 10 seconds and rinsed off
Protocol: Radiolabelled sodium lauroyl lactylate, as used in Example 2, was incorporated into a detergent composition containing
This solution was diluted with about four times its own volume of water, so that the concentration of sodium lauroyl lactylate was 0.12M.
100 µl quantities of this diluted solution were applied to test pieces of pig ear, left for 10 seconds and rinsed off. Excess water was removed with cotton wool, and nine tape strips were taken. All the tape strips were placed in a vial with phosphate buffer and scintillation fluid. The radiolabel content was measured using a scintillation counter.

[4] = Lactic acid on tape strips from volar forearm after lauryl lactate dispersion; type: in vivo, human; design: unit not given here; conditions: 2% by weight dispersion in water, 100 µl
Protocol: This dispersion was tested on the volar forearm of a human volunteer. 100 µl of the dispersion was applied to each of three areas (15cm^2) on the volar forearm, rubbed in and allowed to dry. Ten Desquarne tape strips were taken fropm a fourth, untreated area. After 1 hour ten tape strips were taken from one treated area. Ten tape strips were taken from the other treated areas after 3 and 8 hours respectively. The tape strips taken after 1 hour and 3 hours were stored at room temperature for the rest of the 8 hour period, allowing enzymic hydrolysis.
The amount of lactic acid on each tape strip was determined, by the procedure quoted in Example 1. […] Moreover, this is at all levels, indicating penetration of the lactate ester into the skin where it is hydrolysed.

[5] = Measurement of skin conductivity (SKICON 200) as index of skin moisturisation, panel of volunteers; type: in vivo, human; conditions: for mean adjusted SKICON 200 readings: 100mM in buffer (3.0%), 100µl, relative to pretreatment reading
From the text: The topical application to skin of hydroxyalkanoate derivatives improves the retention of moisture by the skin and/or increases the level of moisture in the skin to a significant extent. […] An increase in skin conductivity is thus used as an index of increase in skin moisturisation.
This method measures the cumulative effect of applying products to the skin, on the conductivity of the superficial stratum corneum.
It is well established that the conductivity of the skin, as measured by placing the probe of a suitable conductivity meter in contact with the skin, is proportional to the water content of the outermost strata of the epidermis. The measurement of skin conductivity can therefore be used to indicate the ability of a topically applied product to hydrate the epidermis: see D. van Neste, J. Dermatol Sci., 2, p119 - 124, (1991), "Comparative Study of Normal and Rough Human Skin Hydration in vivo: evaluation with four different instruments". The method is widely used and accepted as indicative of product skin moisturisation efficacy.
The device for measuring skin conductivity employed in this test is the SKICON 200, a skin hygrometer available from IBS Co.
A small panel of volunteers, greater than six in number and preferably from 12 to 20, is recruited for the test.
Two sites 3 x 4cm are marked onto each volar forearm at least 6cm from either the wrist or elbow and with a separation of at least 6cm. Each site is treated once a day for five consecutive days with 100µl of a single treatment material. Allocation of material to left or right arm, upper or lower site is varied to avoid site effects. A total of two treatment materials can be used, one site per panellist remaining untreated for the entire five day period.
On the first day of the test, panellists are allowed to equilibrate in a climate controlled environment (20°C 70% RH for 15 minutes with no significant sensory stimuli). Eight conductivity measurements are taken per site using random positions within the test site; these represent the baseline. 100µl of treatment material is then applied and gently rubbed into the test site for each of the three treatment sites. Further four sets of eight readings from the treatment sites are then taken one, two and four hours after application, again using the equilibration period in a climate controlled environment. This procedure is repeated on the following four days.
The effect of each treatment is then assessed using the following method: adjusted effect =(Mean treatment site reading)/(Mean pretreatment site reading) [formula]
This value is calculated for each treatment, for each timepoint on each day of treatment for each panellist, resulting in a final mean value for the adjusted effect for the entire panel also being obtained by calculation.
The following treatments were applied in this test • 1. 5mM Sorensons phosphate buffer pH 7.00 + 2% Nipagin • 2. 100mM Sodium dodecoyl lactylate in buffer (a concentration of 3.0%) • 3. No treatment
The results are shown in the table below which records the mean adjusted SKICON 200 readings (i.e. proportional to initial skin conductivity = moisturisation) at hourly periods up to 4 hours.

Structure (SMILES): CC(O)C(=O)O (centres unmarked) [G, sodium lactate, reference compound]
penetration into the stratum corneum [1]: virtually no penetration occurs

metabolised at 6 h ([2]; Tapes 1-3): 13.1%
remaining at 6 h ([2]; Tapes 1-3): 8.9%
metabolised at 6 h ([2]; Tapes 4-6): 35.1%
remaining at 6 h ([2]; Tapes 4-6): 64.9%
metabolised at 6 h ([2]; Tapes 7-9): 45.2%
remaining at 6 h ([2]; Tapes 7-9): 54.8%
Structure (SMILES): CCCCCCCCCCCC(=O)OC(C)C(=O)O (centres unmarked) [Lauroyl lactylate, Sodium lauroyl lactylate]
hydrolysis in the skin ([2]; result in words): had occurred in each instance and had occurred to the greatest extent with the material which had penetrated furthest into the skin
deposition onto the skin [3]: a small proportion of the radiolabelled lactylate had deposited onto the skin

amount of lactic acid on each tape strip ([4]; 1 Hour, Tape No 1): 0.289
amount of lactic acid on each tape strip ([4]; 1 Hour, Tape No 2): 0.361
amount of lactic acid on each tape strip ([4]; 1 Hour, Tape No 3): 0.217
amount of lactic acid on each tape strip ([4]; 1 Hour, Tape No 4): 0.124
amount of lactic acid on each tape strip ([4]; 1 Hour, Tape No 5): 0.192
amount of lactic acid on each tape strip ([4]; 1 Hour, Tape No 6): 0.201
amount of lactic acid on each tape strip ([4]; 1 Hour, Tape No 7): 0.179
amount of lactic acid on each tape strip ([4]; 1 Hour, Tape No 8): 0.177
amount of lactic acid on each tape strip ([4]; 1 Hour, Tape No 9): 0.211
amount of lactic acid on each tape strip ([4]; 1 Hour, Tape No 10): 0.169
amount of lactic acid on each tape strip ([4]; 3 Hours, Tape No 1): 0.282
amount of lactic acid on each tape strip ([4]; 3 Hours, Tape No 2): 0.250
amount of lactic acid on each tape strip ([4]; 3 Hours, Tape No 3): 0.252
amount of lactic acid on each tape strip ([4]; 3 Hours, Tape No 4): 0.262
amount of lactic acid on each tape strip ([4]; 3 Hours, Tape No 5): 0.485
amount of lactic acid on each tape strip ([4]; 3 Hours, Tape No 6): 0.487
amount of lactic acid on each tape strip ([4]; 3 Hours, Tape No 7): 0.271
amount of lactic acid on each tape strip ([4]; 3 Hours, Tape No 8): 0.246
amount of lactic acid on each tape strip ([4]; 3 Hours, Tape No 9): 0.254
amount of lactic acid on each tape strip ([4]; 3 Hours, Tape No 10): 0.269
amount of lactic acid on each tape strip ([4]; 8 Hours, Tape No 1): 0.260
amount of lactic acid on each tape strip ([4]; 8 Hours, Tape No 2): 0.210
amount of lactic acid on each tape strip ([4]; 8 Hours, Tape No 3): 0.250
amount of lactic acid on each tape strip ([4]; 8 Hours, Tape No 4): 0.222
amount of lactic acid on each tape strip ([4]; 8 Hours, Tape No 5): 0.259
amount of lactic acid on each tape strip ([4]; 8 Hours, Tape No 6): 0.230
amount of lactic acid on each tape strip ([4]; 8 Hours, Tape No 7): 0.241
amount of lactic acid on each tape strip ([4]; 8 Hours, Tape No 8): 0.234
amount of lactic acid on each tape strip ([4]; 8 Hours, Tape No 9): 0.194
amount of lactic acid on each tape strip ([4]; 8 Hours, Tape No 10): 0.449
Structure (SMILES): CCCCCCCCCCCCOC(=O)C(C)O (centres unmarked) [Lauryl lactate]

Structure (SMILES): CCCCCCCCCCCC(=O)OC(C)C(=O)O (centres unmarked) [Na Acyl Lactylate, Sodium dodecoyl lactylate]
mean adjusted SKICON 200 readings ([5]; T=0 Hr): 1.00
mean adjusted SKICON 200 readings ([5]; T=1 Hr): 1.27
mean adjusted SKICON 200 readings ([5]; T=2 Hr): 1.30
mean adjusted SKICON 200 readings ([5]; T=4 Hr): 1.31
moisturisation of the skin ([5]; result in words, compared with the buffer alone): significant moisturisation of the skin was achieved
